Measurements from US20210299079A1, “MONOMETHYL FUMARATE-CARRIER CONJUGATES AND METHODS OF THEIR USE” (Flagship Pioneering Innovations V, Inc., priority 2018, published 2021).
Where a name gives a salt, the structure may show the parent alone.

How the values were obtained:
[1] = In vitro Colonic Material Stability Assay; assay type: in vitro ADME; conditions: colonic material slurry in YCFAC media, anaerobic, 1 or 10 μM
Procedure: Assay 3. In vitro Colonic Material Stability Assay. This assay was used to assess the stability of a conjugate in a large intestine. All experiments were performed in an anaerobic chamber containing 90% nitrogen, 5% hydrogen and 5% carbon dioxide. Colonic material was resuspended as a slurry (15% w/v final concentration) in pre-reduced, anaerobically sterilized dilution blanks (Anaerobe Systems AS-908). The colonic material was then inoculated into 96 well plates containing YCFAC media (Anaerobe Systems AS-680) or other suitable media (6.7 μL slurry into 1 mL total media). Compounds or groups of compounds were added to each individual well to reach a final analyte concentration of 1 or 10 μM, and the material was mixed by pipetting. Sample was removed after set timepoints (0, 120, 240, 480, 1440, 2880 minutes after initiation of the assay), quenched with acetonitrile containing internal standard, and analyzed by LC/MS.

[2] = Stability of conjugates in Simulated Gastric Fluid (SGF); assay type: in vitro ADME; conditions: SGF pH 1.6 with pepsin, 37° C., 1 μM compound
Procedure: Assay 1. Stability of conjugates in Simulated Gastric Fluid (SGF). This assay was used to assess the stability of a conjugate in a stomach.
Medium was prepared by dissolving 2 g of sodium chloride in 0.6 L in ultrapure water (MilliQ®, Millipore Sigma, Darmstadt, Germany). The pH was adjusted to 1.6 with 1N hydrochloric acid, and the volume was then adjusted to 1 L with purified water.
60 mg FaSSIF powder (Biorelevant™, London, UK) were dissolved in 500 mL buffer (above). Pepsin was added (0.1 mg/mL) (Millipore Sigma, Darmstadt, Germany), and the solution was stirred. The resulting SGF media were used fresh for each experiment.
(§1) Test compounds were dissolved in DMSO stock to 1 mM. An aliquot of the DMSO stock solution was removed and diluted in the SGF Media in 15 mL falcon tubes to generate a total compound concentration of 1 μM. A 1 mL aliquot was immediately removed and diluted once with 1 volume of acetonitrile for TO timepoint. The mixture was sealed and mixed at 37° C. in an incubator. Aliquots (1 mL) were removed at regular intervals and immediately quenched by the addition of 1 volume of acetonitrile. The resulting samples were analyzed by LC/MS to determine degradation rates in SGF.

[3] = Stability of conjugates in Simulated Intestinal Fluid (SIF); assay type: in vitro ADME; conditions: SIF pH 6.7 with pancreatin, 37° C., 1 μM compound
Procedure: Assay 2. Stability of conjugates in Simulated Intestinal Fluid (SIF). This assay was used to assess the stability of a conjugate in a small intestine.
Phosphate buffer was prepared by dissolving 0.42 g of sodium hydroxide pellets and 3.95 g of monobasic sodium phosphate monohydrate and 6.19 g of sodium chloride in ultrapure water (MilliQ®, Millipore Sigma, Darmstadt, Germany). The pH was adjusted to 6.7 using aq. HCl and aq. NaOH, as necessary, and the solution was diluted with ultrapure water to produce 1 L of the pH 6.7 buffer.
112 mg FaSSIF powder (Biorelevant™, London, UK) was dissolved in 50 mL of the pH 6.7 buffer. 2 to 3 mL of the resulting solution were then added to 500 mg pancreatin (Millipore Sigma, Darmstadt, Germany). The resulting mixture was agitated by finger tapping the vessel containing the mixture until milky suspension formed. At this time, the remainder of the 50 mL FaSSiF/pH 6.7 buffer solution was added. The resulting suspension was flipped upside down 10 times to produce SIF, which was used fresh.
as §1, with “SIF media” for “SGF Media”, “produce” for “generate”, “mixture with a tested” for “total”, “agitated” for “mixed”, “rates” for “rates in SGF.”

[4] = Gastrointestinal (GI) Exposure to Propionate (Study 1); assay type: in vivo, CD-1 mice; conditions: mouse; for Propionate-d3 AUClast / Propionate-d3 Tmax: single oral dose: Propionate-d3 62 mg/kg, Compound 3-d12 110 mg/kg, Compound 6-d9 91 mg/kg
Procedure: In order to measure propionate concentrations along the GI track, CD-1 mice were orally administered a single dose of deuterated sodium propionate, Compound 3 comprising deuterated propionate, or Compound 6 comprising deuterated propionate (Propionate-d3, Compound 3-d12, and Compound 6-d9, respectively; suspension, 1% (w/v) methyl cellulose in deionized water). The amounts of compound dosed were normalized to provide approximately equimolar amounts of […] (Propionate-d3 at 62 mg/kg, Compound 3-d12 at 110 mg/kg, and Compound 6-d9 at 91 mg/kg). […] Blood samples were collected in K2EDTA tubes and stored on wet ice no more than 30 min and then further processed to plasma. GI samples were placed into separate labeled, pre-weighted collection tubes and frozen before analysis. Brain samples were homogenized prior to analysis. Samples were subsequently worked up and analyzed by LC-MS/MS for deuterated propionate concentration. Propionate concentrations versus time for different tissues are depicted in FIGS. 4A-4H and 5A-5C.

Structure (SMILES) | Assay 1 (SGF) (% Remaining @ 1 hour) [2] | Assay 2 (SIF) (% @ Remaining 4 hours) [3] | other results
CCC(=O)O[C@@H]1[C@@H](OC(=O)CC)[C@@H](OC(=O)/C=C/C(=O)OC)OC[C@H]1OC(=O)CC [Compound 16, Methyl ((2R,3R,4S,5R)-3,4,5-tris(propionyloxy)tetrahydro-2H-pyran-2-yl) fumarate] |  |  | Assay 3 (% Remaining at 24 h) [1]: C (C: >75% of the tested compound remaining)
CCC(=O)OC[C@H]1O[C@@H](OC(=O)/C=C/C(=O)OC)[C@H](OC(=O)CC)[C@@H](OC(=O)CC)[C@H]1O [Compound 47, (2S,3R,4S,5S,6R)-5-hydroxy-3,4-bis(propanoyloxy)-6-[(propanoyloxy)methyl]oxan-2-yl 1-methyl (2E)-but-2-enedioate] | C (C: >75% of the tested compound remaining) | A (A: <25% of the tested compound remaining) | 
CCC(=O)O[C@H]1[C@@H](OC(=O)CC)[C@@H](CO)O[C@H](OC(=O)/C=C/C(=O)OC)[C@@H]1OC(=O)CC [Compound 48, (2R,3R,4S,5S,6R)-6-(hydroxymethyl)-3,4,5-tris(propanoyloxy)oxan-2-yl 1-methyl (2E)-but-2-enedioate] | C (C: >75% of the tested compound remaining) | A (A: <25% of the tested compound remaining) | 
CCC(=O)OC[C@H]1O[C@H](OC(=O)/C=C/C(=O)OC)[C@H](OC(=O)CC)[C@@H](OC(=O)CC)[C@H]1O [Compound 49, (2R,3R,4S,5S,6R)-5-hydroxy-3,4-bis(propanoyloxy)-6-[(propanoyloxy)methyl]oxan-2-yl 1-methyl (2E)-but-2-enedioate] | C (C: >75% of the tested compound remaining) | A (A: <25% of the tested compound remaining) | 
CCC(=O)O[C@H]1O[C@H](COC(=O)/C=C/C(=O)OC)[C@@H](OC(=O)CC)[C@H](OC(=O)CC)[C@H]1OC(=O)CC [Compound 50, 1-methyl 4-[(2R,3R,4S,5R,6R)-3,4,5,6-tetrakis(propanoyloxy)oxan-2-yl]methyl (2E)-but-2-enedioate] | C (C: >75% of the tested compound remaining) | A (A: <25% of the tested compound remaining) | 
CCC(=O)OC[C@H]1O[C@@H](OC(=O)CC)[C@H](OC(=O)CC)[C@@H](OC(=O)CC)[C@H]1OC(=O)/C=C/C(=O)OC [Compound 51, 1-methyl (2R,3S,4S,5R,6S)-4,5,6-tris(propanoyloxy)-2-[(propanoyloxy)methyl]oxan-3-yl (2E)-but-2-enedioate] | C (C: >75% of the tested compound remaining) | A (A: <25% of the tested compound remaining) | 
CCC(=O)OC[C@H]1O[C@H](OC(=O)CC)[C@H](OC(=O)CC)[C@@H](OC(=O)CC)[C@H]1OC(=O)/C=C/C(=O)OC [Compound 52, 1-methyl (2R,3S,4S,5R,6R)-4,5,6-tris(propanoyloxy)-2-[(propanoyloxy)methyl]oxan-3-yl (2E)-but-2-enedioate] | C (C: >75% of the tested compound remaining) | A (A: <25% of the tested compound remaining) | 
COC(=O)/C=C/C(=O)Oc1cc(OC(=O)/C=C/C(=O)OC)c2c(c1)O[C@H](c1ccc(OC(=O)/C=C/C(=O)OC)c(OC(=O)/C=C/C(=O)OC)c1)[C@H](OC(=O)/C=C/C(=O)OC)C2 [Compound 53, O4-[2-[(E)-4-methoxy-4-oxo-but-2-enoyl]oxy-4-[(2R,3R)-3,5,7-tris[[(E)-4-methoxy-4-oxo-but-2-enoyl]oxy]chroman-2-yl]phenyl] O1-methyl (E)-but-2-enedioate] | C (C: >75% of the tested compound remaining) | A (A: <25% of the tested compound remaining) | 
COC(=O)/C=C/C(=O)Oc1ccc(-c2oc3cc(OC(=O)/C=C/C(=O)OC)cc(OC(=O)/C=C/C(=O)OC)c3c(=O)c2OC(=O)/C=C/C(=O)OC)cc1 [Compound 54, 01-methyl O4-[4-[3,5,7-tris[[(E)-4-methoxy-4-oxo-but-2-enoyl]oxy]-4-oxo-chromen-2-yl]phenyl] (E)-but-2-enedioate] | C (C: >75% of the tested compound remaining) | A (A: <25% of the tested compound remaining) | 
COC(=O)/C=C/C(=O)Oc1cc(OC(=O)/C=C/C(=O)OC)c2c(=O)c(OC(=O)/C=C/C(=O)OC)c(-c3ccc(OC(=O)/C=C/C(=O)OC)c(OC(=O)/C=C/C(=O)OC)c3)oc2c1 [Compound 55, O4-[2-[(E)-4-methoxy-4-oxo-but-2-enoyl]oxy-4-[3,5,7-tris[[(E)-4-methoxy-4-oxo-but-2-enoyl]oxy]-4-oxo-chromen-2-yl]phenyl] O1-methyl (E)-but-2-enedioate] | C (C: >75% of the tested compound remaining) | A (A: <25% of the tested compound remaining) | 
COC(=O)/C=C/C(=O)Oc1ccc(-c2oc3cc(OC(=O)/C=C/C(=O)OC)cc(OC(=O)/C=C/C(=O)OC)c3c(=O)c2O)cc1 [Compound 56, O4-[4-[3-hydroxy-5,7-bis[[(E)-4-methoxy-4-oxo-but-2-enoyl]oxy]-4-oxo-chromen-2-yl]phenyl] O1-methyl (E)-but-2-enedioate] | C (C: >75% of the tested compound remaining) | A (A: <25% of the tested compound remaining) | 
[2H]C([2H])([2H])CC(=O)[O-].[Na+] [Propionate-d3, sodium propionate-d3, reference compound] |  |  | Propionate-d3 AUClast ([4]; Brain): below quantitative; Propionate-d3 Tmax ([4]; Brain): 15 min; Propionate-d3 AUClast ([4]; Cecum): 76 nmol·h/g; Propionate-d3 Tmax ([4]; Cecum): 15 min; Propionate-d3 AUClast ([4]; Distal Colon): 31 nmol·h/g; Propionate-d3 Tmax ([4]; Distal Colon): 15 min; Propionate-d3 AUClast ([4]; Distal Intestine): 6.6 nmol·h/g; Propionate-d3 Tmax ([4]; Distal Intestine): 30 min; Propionate-d3 AUClast ([4]; Proximal Colon): 46 nmol·h/g; Propionate-d3 Tmax ([4]; Proximal Colon): 15 min; Propionate-d3 AUClast ([4]; Proximal Intestine): 13 nmol·h/g; Propionate-d3 Tmax ([4]; Proximal Intestine): 15 min; Propionate-d3 AUClast ([4]; Stomach): 7020 nmol·h/g; Propionate-d3 Tmax ([4]; Stomach): 15 min; region where the highest concentrations (Cmax) of propionate-d3 were observed ([4]; single oral dose, GI tissues): stomach
